19 molecules from patent US10231956B2, “3-(1H-pyrrolo[3,2-C]pyridin-2-YL)-1 H-pyrazolo[4,3-B]pyridines and therapeutic uses thereof” (Samumed, LLC, priority 2015, dated 2019) can be followed below.

By inhibition is commonly meant how much of the control response was suppressed.

Experiment [1] has as its system primary human mesenchymal stem cells (hMSCs). As to the kind of experiment: Induction of chondrogenesis in primary human mesenchymal stem cells (nodule count). Type of experiment: cell-based. To be noted: 144 h, 6 days; for Emax: TGF-β3 10 ng/mL as positive control, read-out: Max. Activity as % TGF-β3 activity; for EC50: concentration required to induce 50% levels of chondrogenesis vs TGF-β3, read-out: Conc (nM) of 50% TGF-β3 activity. On the procedure: Representative compounds were screened using primary human mesenchymal stem cells (hMSCs) to determine their ability to induce chondrogenesis (process by which cartilage is developed).
Human Mesenchymal Stem Cell Culture: Primary human mesenchymal stem cells (hMSCs) were purchased from Lonza (Walkersville, Md.) and expanded in Mesenchymal Stem Cell Growth Media (Lonza). Cells between passage 3 and 6 were used for the experiments.
Compound Screening: Each compound was dissolved in DMSO as a 10 mM stock and used to prepare compound source plates. Serial dilution (1:3, 6-point dose-response curves from 2700 nM to 10 nM) and compound transfer was performed using the ECHO 550 (Labcyte, Sunnyvale, Calif.) into 96-well clear bottom assay plates (Greiner Bio-One) with appropriate DMSO backfill for a final DMSO concentration of 0.03%. hMSCs were plated at 20,000 cells/well in 250 μL/well Incomplete Chondrogenic Induction Medium (Lonza; DMEM, dexamethasone, ascorbate, insulin-transferrin-selenium [ITS supplement], gentamycin-amphotericin [GA-1000], sodium pyruvate, proline and L-glutamine). TGF-β3 (10 ng/mL) was used as a positive control for differentiation while negative control wells were treated with 75 nL DMSO for normalization and calculating EC50 values. Cells were incubated at 37° C. and 5% CO2 for 6 days. To image chondrogenic nodules, the cells were fixed using 4% formaldehyde (Electron Microscopy Sciences), and stained with 2 μg/mL Rhodamine B (Sigma-Aldrich) and 20 μM Nile Red (Sigma-Aldrich) [Johnson K., et. al, A Stem Cell-Based Approach to Cartilage Repair, Science, (2012), 336(6082), 717-721]. The nodules imaged (4 images per well at 4× magnification) by excitation at 531 nm and emission at 625 nm and quantified using the CellInsight CX5 (Thermo Scientific). Number of nodules in each well was normalized to the average of 3 DMSO treated wells on the same plate using Excel (Microsoft Inc.). The normalized averages (fold change over DMSO) of 3 replicate wells for each compound concentration were calculated. Due to solubility limitations of some of the compounds, curve fitting was incomplete leading to inaccurate EC50 determinations.
Using TGF-β3 as a positive control, the concentration of representative compounds required to induce 50% levels of chondrogenesis is reported. In addition, the maximum activity of each compound and the respective dose that each compound reached maximum chondrogenesis activity is reported.

In experiment [2] the test system is Wnt activity (Sp5-Luc reporter, SW480 colon carcinoma cells). As to the kind of experiment: Sp5-Luc reporter gene screening assay for Wnt activity in SW480 cells. To be noted: Homo sapiens; for EC50: luminescence, overnight incubation; for inhibition at 10 µM: given for EC50 >10 μM, read-out: percent inhibition at 10 μM. Type of experiment: cell-based. In short, it runs like this:
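Luminescence (BrightGlo) was normalised to DMSO-only wells and fitted with a four-parameter variable-slope model for EC50; beyond 10 μM, % inhibition at 10 μM is given. Stable Sp5-Luc SW480 reporter cells, 4,000/well in 1% FBS, were exposed overnight at 37 °C to compounds, top 10 μM, 1:3 dilutions, 0.1% DMSO.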
(A reporter such as luciferase makes a cellular process visible.)

Structures are written as SMILES. A value given as a limit tells only on which side of the number the result lay.

For the molecule `c1cncc(-c2ccc3[nH]nc(-c4cc5c(N6CCCCC6)nccc5[nH]4)c3n2)c1` [Compound 172, 3-(4-(Piperidin-1-yl)-1H-pyrrolo[3,2-c]pyridin-2-yl)-5-(pyridin-3-yl)-1H-pyrazolo[4,3-b]pyridine], in experiment [1], the Emax came to 29%. In addition, in experiment [2], the EC50 worked out at 411 nM.

With `CCCCC(=O)Nc1cncc(-c2ccc3[nH]nc(-c4cc5c(N6CCCCC6)nccc5[nH]4)c3n2)c1` [Compound 187, N-(5-(3-(4-(Piperidin-1-yl)-1H-pyrrolo[3,2-c]pyridin-2-yl)-1H-pyrazolo[4,3-b]pyridin-5-yl)pyridin-3-yl)pentanamide], in experiment [1], the Emax was 54% and the EC50 was found to be 30 nM. Also, in experiment [2], the inhibition at 10 µM was found to be 42.2% and the EC50 was over 10000 nM.

Turning to `CS(=O)(=O)NCc1cc(F)cc(-c2nccc3[nH]c(-c4n[nH]c5ccc(-c6cncc(NC(=O)C7CCCC7)c6)nc45)cc23)c1` [Compound 498, N-(5-(3-(4-(3-Fluoro-5-(methylsulfonamidomethyl)phenyl)-1H-pyrrolo[3,2-c]pyridin-2-yl)-1H-pyrazolo[4,3-b]pyridin-5-yl)pyridin-3-yl)cyclopentanecarboxamide], in experiment [1], the Emax was determined as 50% and the EC50 was 900 nM. The molecule also registered an EC50 in experiment [2] of 1310 nM.

For the molecule `Fc1ccc(-c2nccc3[nH]c(-c4n[nH]c5ccc(-c6cncc(OC7CCNCC7)c6)nc45)cc23)cc1` [Compound 528, 3-(4-(4-Fluorophenyl)-1H-pyrrolo[3,2-c]pyridin-2-yl)-5-(5-(piperidin-4-yloxy)pyridin-3-yl)-1H-pyrazolo[4,3-b]pyridine], in experiment [1], the Emax was 54% and the EC50 is 10 nM. The molecule further returned an EC50 in experiment [2] of 3830 nM.

For the molecule `CN(C)Cc1cncc(-c2ccc3[nH]nc(-c4cc5cnccc5[nH]4)c3n2)c1` [Compound 265, 1-(5-(3-(1H-Pyrrolo[3,2-c]pyridin-2-yl)-1H-pyrazolo[4,3-b]pyridin-5-yl)pyridin-3-yl)-N,N-dimethylmethanamine], in experiment [1], the Emax came to 119% and the EC50 came to 30 nM. In experiment [2], this molecule came in with an EC50 of 1690 nM.

As to `c1cncc(-c2ccc3[nH]nc(-c4cc5cnccc5[nH]4)c3n2)c1` [Compound 256, 5-(Pyridin-3-yl)-3-(1H-pyrrolo[3,2-c]pyridin-2-yl)-1H-pyrazolo[4,3-b]pyridine], in experiment [1], the Emax was determined as 119% and the EC50 amounted to 900 nM. The molecule further yielded an EC50 in experiment [2] of 251 nM.

`CS(=O)(=O)NCc1cc(F)cc(-c2nccc3[nH]c(-c4n[nH]c5ccc(-c6cncnc6)nc45)cc23)c1` [Compound 503, N-(3-Fluoro-5-(2-(5-(pyrimidin-5-yl)-1H-pyrazolo[4,3-b]pyridin-3-yl)-1H-pyrrolo [3,2-c]pyridin-4-yl)benzyl)methanesulfonamide]: in experiment [1], the Emax is 51% and the EC50 was found to be 2700 nM. This molecule showed an EC50 in experiment [2] of 745 nM.

As to `CS(=O)(=O)NCc1cc(F)cc(-c2nccc3[nH]c(-c4n[nH]c5ccc(-c6cncc(NC(=O)C7CCCCC7)c6)nc45)cc23)c1` [Compound 499, N-(5-(3-(4-(3-Fluoro-5-(methylsulfonamidomethyl)phenyl)-1H-pyrrolo[3,2-c]pyridin-2-yl)-1H-pyrazolo[4,3-b]pyridin-5-yl)pyridin-3-yl)cyclohexanecarboxamide], the Emax in experiment [1] stood at 50%. Besides, the EC50 came out at 10 nM in experiment [1] and 1140 nM in experiment [2].

Regarding `CS(=O)(=O)NCc1cc(F)cc(-c2nccc3[nH]c(-c4n[nH]c5ccc(-c6cncc(CN7CCC(F)(F)C7)c6)nc45)cc23)c1` [Compound 502, N-(3-(2-(5-(5-((3,3-Difluoropyrrolidin-1-yl)methyl)pyridin-3-yl)-1H-pyrazolo[4,3-b]pyridin-3-yl)-1H-pyrrolo[3,2-c]pyridin-4-yl)-5-fluorobenzyl) methanesulfonamide], in experiment [1], the Emax came to 148% and the EC50 came to 10 nM. Also, the EC50 in experiment [2] came out at 502 nM.

Turning to `CS(=O)(=O)NCc1cc(F)cc(-c2nccc3[nH]c(-c4n[nH]c5ccc(-c6ccccn6)nc45)cc23)c1` [Compound 504, N-(3-Fluoro-5-(2-(5-(pyridin-2-yl)-1H-pyrazolo[4,3-b]pyridin-3-yl)-1H-pyrrolo[3,2-c]pyridin-4-yl)benzyl)methanesulfonamide], in experiment [1], the Emax turned out to be 24%. In addition, in experiment [2], the EC50 is 2140 nM.

`Cc1ncc(-c2ccc3[nH]nc(-c4cc5c(-c6ccncc6)nccc5[nH]4)c3n2)n1C` [Compound 573, 5-(1,2-Dimethyl-1H-imidazol-5-yl)-3-(4-(pyridin-4-yl)-1H-pyrrolo[3,2-c]pyridin-2-yl)-1H-pyrazolo[4,3-b]pyridine]: in experiment [1], the Emax was determined as 104% and the EC50 came to 30 nM. This molecule also yielded an EC50 in experiment [2] of 100 nM.

Turning to `CCNCc1cncc(-c2ccc3[nH]nc(-c4cc5cnccc5[nH]4)c3n2)c1` [Compound 258, N-((5-(3-(1H-Pyrrolo[3,2-c]pyridin-2-yl)-1H-pyrazolo[4,3-b]pyridin-5-yl)pyridin-3-yl)methyl)ethanamine], the Emax in experiment [1] was determined as 99%. Further, the figures for the EC50 in experiment [1] and in experiment [2] were 2700 nM and 3470 nM, respectively.

On to `Cc1ccncc1-c1ccc2[nH]nc(-c3cc4c(-c5cc(F)cc(CNS(C)(=O)=O)c5)nccc4[nH]3)c2n1` [Compound 481, N-(3-Fluoro-5-(2-(5-(4-methylpyridin-3-yl)-1H-pyrazolo[4,3-b]pyridin-3-yl)-1H-pyrrolo[3,2-c]pyridin-4-yl)benzyl)methanesulfonamide], for which, in experiment [1], the Emax amounted to 98%. Besides, the EC50 worked out at 10 nM in experiment [1] and 313 nM in experiment [2].

As for `Fc1ccccc1-c1nccc2[nH]c(-c3n[nH]c4ccc(-c5cn[nH]c5)nc34)cc12` [Compound 539, 3-(4-(2-Fluorophenyl)-1H-pyrrolo[3,2-c]pyridin-2-yl)-5-(1H-pyrazol-4-yl)-1H-pyrazolo[4,3-b]pyridine], in experiment [1], the Emax was 174% and the EC50 was determined as 100 nM. In addition, the EC50 in experiment [2] stood at 590 nM.

Turning to `c1cc2[nH]c(-c3n[nH]c4ccc(-c5cncc(OC6CCCCC6)c5)nc34)cc2c(N2CCCCC2)n1` [Compound 607, 5-(5-(Cyclohexyloxy)pyridin-3-yl)-3-(4-(piperidin-1-yl)-1H-pyrrolo[3,2-c]pyridin-2-yl)-1H-pyrazolo[4,3-b]pyridine], the Emax in experiment [1] came out at 163%. The EC50 came out at 10 nM in experiment [1] and 2660 nM in experiment [2].

As to `O=C(CC1CCNCC1)Nc1cncc(-c2ccc3[nH]nc(-c4cc5c(N6CCCCC6)nccc5[nH]4)c3n2)c1` [Compound 609, N-(5-(3-(4-(Piperidin-1-yl)-1H-pyrrolo[3,2-c]pyridin-2-yl)-1H-pyrazolo[4,3-b]pyridin-5-yl)pyridin-3-yl)-2-(piperidin-4-yl)acetamide], in experiment [1], the Emax amounted to 22%. In experiment [2], the inhibition at 10 µM was found to be 13.3% and the EC50 is over 10000 nM.

For the molecule `Fc1ccccc1-c1nccc2[nH]c(-c3n[nH]c4ccc(-c5cncc(CNCc6ccccc6)c5)nc34)cc12` [Compound 80, N-Benzyl-1-(5-(3-(4-(2-fluorophenyl)-1H-pyrrolo[3,2-c]pyridin-2-yl)-1H-pyrazolo[4,3-b]pyridin-5-yl)pyridin-3-yl)methanamine], in experiment [1], the Emax amounted to 110% and the EC50 turned out to be 10 nM. The molecule also showed an EC50 in experiment [2] of 3790 nM.

With `Fc1cccc(-c2nccc3[nH]c(-c4n[nH]c5ccc(-c6cncc(CN7CCCCC7)c6)nc45)cc23)c1` [Compound 15, 3-(4-(3-Fluorophenyl)-1H-pyrrolo[3,2-c]pyridin-2-yl)-5-(5-(piperidin-1-ylmethyl)pyridin-3-yl)-1H-pyrazolo[4,3-b]pyridine], the Emax in experiment [1] worked out at 48%. Besides, the EC50 in experiment [2] was 3750 nM.

As to `CS(=O)(=O)NCc1cc(F)cc(-c2nccc3[nH]c(-c4n[nH]c5ccc(-c6cncc(NC(=O)Cc7ccccc7)c6)nc45)cc23)c1` [Compound 486, N-(5-(3-(4-(3-Fluoro-5-(methylsulfonamidomethyl)phenyl)-1H-pyrrolo[3,2-c]pyridin-2-yl)-1H-pyrazolo[4,3-b]pyridin-5-yl)pyridin-3-yl)-2-phenylacetamide], in experiment [1], the Emax is 110% and the EC50 is 10 nM. Further, in experiment [2], the inhibition at 10 µM was 19.3% and the EC50 is over 10000 nM.
